Data from patent publication US20260166170A1, “ANTIBODY DRUG CONJUGATE COMPRISING NMT INHIBITOR AND ITS USE” (MyricX Pharma Limited, priority 2022, published 2026).

Legend:
[1] = test system: BT474 breast cancer cells; assay: Orthotopic breast cancer xenograft model; assay type: in vivo, NOD/SCID mice; details: trastuzumab or ADC Example 1 2.5 or 5 mg/kg; NMT inhibitor 1 2 mg/kg
Procedure: During the study, body weights were measured three times weekly for all animals. Animals were given Diet Gel for the entire duration on the study.

[2] = test system: LNCaP tumours; assay: LNCaP prostate cancer xenograft model; assay type: in vivo, male NOD SCID mice; details: IV, Q7D (x3); for Tumour growth inhibition (TGI, %): day 28
Description: Adjusted p value calculated by Kruskal-Wallis test and Dunn's multiple comparisons relative to vehicle control. […] C is the mean tumour volume of the control Group 1 mice on the measurement day and C0 is the mean tumour volume on Study Day 0.

[3] = test system: VCaP human prostate cancer xenograft; assay: VCaP prostate cancer xenograft model; assay type: in vivo, non-castrated male CB17/SCID mice
Procedure: The objective of this study was to evaluate preclinically the in vivo therapeutic efficacy of ADC Example 4 in the treatment of subcutaneous VCaP human prostate cancer xenograft model in non-castrated male CB17/SCID mice.
In this study, 144 mice were inoculated subcutaneously in the right front flank region with 1×10^7 viable VCaP tumour cells resuspended in 0.1 mL of PBS mixed with Matrigel (1:1) for tumour development on Study Day−20. 80 mice were assigned to 8 treatment groups when tumour volumes averaged ˜162.16 mm^3 on Study Day 0. Dosing commenced the following day and all animals were dosed intravenously with ADC Example 4, ifinatamab-deruxtecan (ifinatamab-Dxd) or unconjugated ifinatamab. All mice received two doses of test agent, on Study Day 1 and Study Day 8. The study was terminated on Study Day 30.

[4] = test system: JIMT-1 human breast xenograft; assay: JIMT-1 breast cancer xenograft model; assay type: in vivo
Description: The study was terminated on the Study Day 60.

## CNCc1cnc2ccc(-c3ccc(F)c(F)c3OCCc3c(C(O)C(C)(C)C)nn(C)c3C)cn12 (centres unmarked) [NMT inhibitor 1, 1-(4-(2-(2,3-difluoro-6-(3-((methylamino)methyl)imidazo[1,2-a]pyridin-6-yl)phenoxy)ethyl)-1,5-dimethyl-1H-pyrazol-3-yl)-2,2-dimethylpropan-1-ol]
[1]
  body weights of mice compared to vehicle control: decreased significantly

## ifinatamab
[2]; 5 mg/kg
  LNCaP tumour volume compared to vehicle control: no significant effect
[2]; 10 mg/kg
  LNCaP tumour volume compared to vehicle control: no significant effect
  Tumour growth inhibition (TGI, %): 13.0%
[3]; 2.5 mg/kg
  tumour volumes compared to vehicle alone: no significant difference
[3]; 5 mg/kg
  tumour volumes compared to vehicle alone: no significant difference

## sacituzumab
[4]; 2.5 mg/kg
  tumour volumes compared to vehicle alone: no significant difference
[4]; 5 mg/kg
  tumour volumes compared to vehicle alone: significant decrease

## sacituzumab govitecan [reference compound]
[4]; 2.5 mg/kg
  tumour volumes compared to vehicle alone: significant decrease
[4]; 5 mg/kg
  tumour volumes compared to vehicle alone: significant decrease

B1: ifinatamab-DXd: ifinatamab-deruxtecan, comparator ADC (conjugate, chains of the INN, looked up)
VH: QVQLVQSGAEVKKPGSSVKVSCKASGYTFTNYVMHWVRQAPGQGLEWMGYINPYNDDVKYNEKFKGRVTITADESTSTAYMELSSLRSEDTAVYYCARWGYYGSPLYYFDYWGQGTLVTVSS
VL: EIVLTQSPATLSLSPGERATLSCRASSRLIYMHWYQQKPGQAPRPLIYATSNLASGIPARFSGSGSGTDFTLTISSLEPEDFAVYYCQQWNSNPPTFGQGTKVEIK
modifications: deruxtecan (DXd) payload
notes: ifinatamab-deruxtecan, comparator ADC
[2]; 5 mg/kg
  Day 28 tumour volume (mm^3, mean ± SEM): 364.6 ± 51.7 mm^3
  LNCaP tumour volume compared to vehicle control: slowed the growth of LNCaP tumours to a lesser extent
  Tumour growth inhibition (TGI, %): 58.8%
[2]; 10 mg/kg
  Day 28 tumour volume (mm^3, mean ± SEM): 259.5 ± 50.3 mm^3
  LNCaP tumour volume compared to vehicle control: significantly reduced the mean volume of LNCaP tumours
  Tumour growth inhibition (TGI, %): 75.0%
[3]; 2.5 mg/kg
  tumour volumes compared to vehicle alone: no significant difference
[3]; 2.5 mg/kg IV QW × 2 weeks
  ΔTGI (Study Day 17): 5.24%
[3]; 5 mg/kg
  tumour volumes compared to vehicle alone: significantly higher tumour volume
[3]; 5 mg/kg IV QW × 2 weeks
  ΔTGI (Study Day 17): 2.86%
